# Test results taken from article PMC10498667 (Chemical Science, 2023).
# What was measured:
# [1] = target: T1, Aβ40 (Homo sapiens, UniProt P05067); experiment: Aβ40 aggregation inhibition experiments (gel/western blot, TEM); format: biochemical; settings: flavonoid 50 μM, 24 h
# T1 construct: Ab40 ([…]-; purchased Peptide Institute, Inc. (Osaka, Japan)
# Method: To verify whether a series of nine flavonoids can modulate the aggregation of Aβ with and without metal ions, the molecular weight (MW) distribution and morphology of the resultant Aβ species were determined by gel electrophoresis with western blotting (gel/western blot) using an anti-Aβ antibody (6E10) and transmission electron microscopy (TEM), respectively. Two types of experiments were carried out employing two major Aβ isoforms, i.e., Aβ42 and Aβ40:[25] (i) inhibition studies to identify the effect of 1–5, 1a, 1b, 4a, and 4b on the formation of Aβ aggregates; (ii) disaggregation studies to evaluate if the flavonoids with reactivities towards Aβ aggregation in inhibition studies can disassemble preformed Aβ aggregates or modulate their further aggregation, as illustrated in Fig. 4 and S5–S9. ^† Moreover, the solutions containing the flavonoids and Cu(II) were probed by electronic absorption (Abs) spectroscopy to monitor their metal binding. […] As expected, no Abs change of 1a and 4a composed of methoxy groups on the A ring was detected by addition of Cu(II). […]
# (§1) Ab Aggregation Experiments. Ab was dissolved in ammonium hydroxide [1% w/w NH4OH (aq)] and the resulting solution was aliquoted, lyophilized overnight, and stored at –80 °C. A stock solution of Ab was then prepared by dissolving the lyophilized peptide with NH4OH (1% w/w, aq; 10 µL) and diluting with ddH2O. All Ab samples were prepared following previously reported procedures.21,22 The concentration of the peptide solution was determined by measuring its […]
# (§2) solution (20 mM HEPES, pH 7.4, 150 mM NaCl) was used for preparing Ab samples. For the inhibition studies, flavonoids (final concentration, 50 µM; 1% v/v DMSO) were added to the samples of Ab (25 µM) in the absence and presence of CuCl2 or ZnCl2 (25 µM) followed by incubation for 24 h at 37 °C with constant agitation. For the disaggregation studies, Ab (25 µM) was incubated with and without CuCl2 or ZnCl2 (25 µM) for 24 h at 37 °C with constant agitation to generate preformed Ab aggregates. The resultant Ab aggregates were then treated with flavonoids (50 µM) and incubated for additional 24 h with constant agitation. For the additional disaggregation experiments, preformed Ab42 aggregates (25 µM) or Ab42 seeds (10% v/v) with or without metal ions (25 µM for CuCl2 and ZnCl2) were incubated with flavonoids (50 µM) for 24 h with constant agitation. The resultant Ab aggregates were then treated with freshly prepared Ab42 […]
# (§3) (25 µM) and incubated for additional 24 h with constant agitation.
# (§4) Gel/Western Blot. The resultant Ab species from the aggregation experiments were analyzed by gel/Western blot using an anti-Ab antibody (6E10, Covance, Princeton, NJ, USA).21,22 Each sample (10 µL) was separated on a 10–20% tricine gel (Invitrogen). Following separation, the proteins were transferred onto nitrocellulose membranes and blocked with bovine serum albumin (BSA, 3% w/v; Sigma-Aldrich) in Tris-buffered saline (TBS) containing 0.1% v/v Tween-20 (Sigma-Aldrich) (TBS-T) for 4 h at room temperature or overnight at 4 °C. The membranes were incubated with 6E10 (1:2,000) in the solution of BSA (2% w/v in TBS-T) for 4 h at room temperature. […] A homemade ECL kit21–23 was used to visualize gel/Western blots on a ChemiDoc MP Imaging System (Bio-Rad).
# TEM. Samples for TEM were prepared following previously reported methods.22,24 Glow-discharged grids (Formvar/Carbon 300-mesh; Electron Microscopy Sciences, Hatfield, PA, USA) were treated with Ab samples (25 µM; 7.5 µL) for 2 min at room temperature. Excess sample was removed using filter paper followed by washing with ddH2O (3x). Each grid incubated with uranyl […]
# [2] = target: T2, Aβ42 (Homo sapiens, UniProt P05067); experiment: Additional disaggregation experiments (preformed aggregates or seeds with Aβ monomers); format: biochemical; settings: metal-free Aβ42 and metal–Aβ42; flavonoid 50 μM
# T2 construct: purchased Peptide Institute, Inc. (Osaka, Japan)
# Method: To probe the secondary nucleation of disassembled Aβ aggregates induced by the flavonoids on Aβ monomers, additional disaggregation experiments were conducted by incubating preformed aggregates of metal-free and metal-treated Aβ or their seeds with Aβ monomers. […] These indications describe the significance of three hydroxyl groups on the A ring in the flavonoid structure to impact the aggregation of metal-free Aβ and metal–Aβ. […]
# as §1
# solution (20 mM HEPES, pH 7.4, 150 mM NaCl) was used for preparing Ab samples. […]
# as §2, with “For” for “solution (20 mM HEPES, pH 7.4, 150 mM NaCl) was used for preparing Ab samples. For the inhibition studies, flavonoids (final concentration, 50 µM; 1% v/v DMSO) were added to the samples of Ab (25 µM) in the absence and presence of CuCl2 or ZnCl2 (25 µM) followed by incubation for 24 h at 37 °C with constant agitation. For”
# as §3, §4
# TEM. […]
# Cu(II)-binding Studies. The interaction of flavonoids with Cu(II) was detected by Abs spectroscopy in 20 mM HEPES, pH 7.4, 150 mM NaCl. […] The mixture solution was allowed to equilibrate for 5 min after the addition of CuCl2 at room temperature before the spectra were recorded. […]
# [3] = system: human neuroblastoma SH-SY5Y (5Y) cells; experiment: Cellular ROS detection assay (prooxidant activity); format: cell-based
# Method: Cellular ROS Detection Assay. The prooxidant activity of flavonoids in living cells was measured by a cellular ROS detection assay kit (Abcam) following the manufacturer ’s protocol. The human neuroblastoma 5Y cells were maintained in media containing 50% v/v Dulbecco's Modified Eagle Medium and 50% v/v Nutrient Mixture F12 (phenol red-free DMEM/F12; GIBCO, Grand Island, NY, USA) supplemented with 10% v/v fetal bovine serum (GIBCO) and 100 U/mL penicillin-streptomycin (GIBCO). The cells were grown and maintained at 37 °C in a humidified atmosphere with 5% CO2. Cells were seeded in a 96-well plate (50,000 cells/100 µL). After 24 h incubation, a ROS-staining working solution (100 µL) was added to each well and the plate was incubated for 1 h at 37 °C. Cells were then treated with the samples {[flavonoid] = 0.01, 0.1, 0.5, and 1 mM (1% v/v DMSO)}. The cellular ROS levels upon the treatment of samples were measured based on the fluorescence intensity (lex/lem = 520/605 nm) of the wells that was detected after 2 h incubation and calculated, relative to that of the cells containing an equivalent amount of DMSO.
# All experiments were performed in triplicate.
# T1 sequence (P05067 672-711 limits assumed): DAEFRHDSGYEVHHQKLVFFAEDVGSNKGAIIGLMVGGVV
# T2 sequence (P05067 672-713 limits assumed): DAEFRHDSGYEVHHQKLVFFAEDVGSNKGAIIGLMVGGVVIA
Structure (SMILES),morphology of resultant aggregates (TEM) ([1]; Cu(II)–Aβ40),MW distribution of resultant species (gel/western blot) ([1]; metal-free Aβ40),morphology of resultant aggregates (TEM) ([1]; metal-free Aβ40),MW distribution after incubating treated preformed aggregates or seeds with Aβ monomers (secondary nucleation) [2],cellular ROS concentration / prooxidative activity ([3]; 0.01 and 0.1 mM flavonoid),cellular ROS concentration / prooxidative activity ([3]; 0.5 and 1 mM flavonoid),MW distribution of resultant species (gel/western blot) ([1]; Cu(II)–Aβ40 and Zn(II)–Aβ40),morphology of resultant aggregates (TEM) ([1]; Zn(II)–Aβ40)
"O=c1cc(-c2ccccc2)oc2c(Cl)c(O)c(O)c(O)c12 [compound 5, 8-chlorobaicalein]",chopped filamentous Cu(II)–Aβ40 aggregates,increased the band intensity,shorter and thinner fibrils,notable variations in the MW distribution,–,–,–,–
"O=c1c(-c2ccccc2)coc2cc(O)c(O)c(O)c12 [4b, 5,6,7-trihydroxyisoflavone]",both amorphous and fibrillary aggregates,reduced,shorter and thinner fibrils,notable variations in the MW distribution,no elevation of the cellular ROS concentration,the prooxidative activity was observed,diverse MW distribution,a bunch of fibrillary species with chopped filamentous aggregates
"O=c1cc(-c2ccccc2)oc2ccc(O)c(O)c12 [compound 3, 5,6-dihydroxyflavone]",both amorphous and fibrillary aggregates,–,–,reactivity specifically towards metal–Aβ42 species,–,–,–,–
"O=c1cc(-c2ccccc2)oc2cc(O)c(O)c(O)c12 [compound 4, baicalein]",both amorphous and fibrillary aggregates,reduced,shorter and thinner fibrils,notable variations in the MW distribution,–,–,–,–
"O=c1c(-c2ccc(O)c(O)c2)coc2cc(O)c(O)c(O)c12 [compound 6, 3-(3,4-dihydroxyphenyl)-5,6,7-trihydroxy-4H-chromen-4-one]",–,–,–,–,No prooxidative activity,increase in the amount of cellular ROS,–,–
